For this assay, the target named is T1, HPK1 (Homo sapiens, UniProt Q92918).
T1 construct: A HiBiT tag was introduced by CRISPR on the N terminus of HPK1 in Jurkat cells; host or cells: Jurkat (ATCC TIB-152), monoclonal CRISPR HiBiT knock-in line
T1 sequence (Q92918 whole entry): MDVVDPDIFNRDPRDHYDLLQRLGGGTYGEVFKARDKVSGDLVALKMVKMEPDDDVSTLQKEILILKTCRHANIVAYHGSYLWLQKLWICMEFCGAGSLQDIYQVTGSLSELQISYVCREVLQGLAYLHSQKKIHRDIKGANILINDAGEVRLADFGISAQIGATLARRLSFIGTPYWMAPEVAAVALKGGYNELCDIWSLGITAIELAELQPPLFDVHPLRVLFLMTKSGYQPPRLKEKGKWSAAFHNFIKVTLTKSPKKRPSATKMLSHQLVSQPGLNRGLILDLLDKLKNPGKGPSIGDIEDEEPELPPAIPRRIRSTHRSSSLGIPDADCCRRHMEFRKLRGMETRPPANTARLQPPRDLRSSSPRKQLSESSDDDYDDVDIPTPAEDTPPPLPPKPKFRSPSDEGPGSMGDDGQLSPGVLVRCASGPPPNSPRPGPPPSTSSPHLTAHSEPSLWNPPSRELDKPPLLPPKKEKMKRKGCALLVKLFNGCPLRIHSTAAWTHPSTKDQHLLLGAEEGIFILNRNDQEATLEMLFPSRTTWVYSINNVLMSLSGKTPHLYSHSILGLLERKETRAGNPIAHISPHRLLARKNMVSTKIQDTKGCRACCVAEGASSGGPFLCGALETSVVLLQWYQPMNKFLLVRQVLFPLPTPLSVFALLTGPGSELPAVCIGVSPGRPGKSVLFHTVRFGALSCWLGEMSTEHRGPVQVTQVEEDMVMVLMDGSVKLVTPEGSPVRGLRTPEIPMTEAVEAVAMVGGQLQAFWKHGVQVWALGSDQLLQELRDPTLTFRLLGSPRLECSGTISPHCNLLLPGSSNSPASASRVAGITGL
The assay can be described thus: HPK1 Cellular HiBiT Degradation Assay. The note with it: HiBiT-tagged HPK1 Jurkat cells, 24 hours, 10 uM to 0.1 nM; Dmax = 100 minus lowest % HPK1 remaining vs DMSO vehicle. Format: cell-based. Put shortly:
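Dmax is derived from four-parameter curves of % HPK1 remaining, as 100 minus the lowest value, normalized to DMSO-treated cells with parental Jurkat background subtracted. HiBiT-HPK1 knock-in Jurkat cells got compound for 24 hours (final 10 uM to 0.1 nM, 11 points) before lytic HiBiT luminescence. Cytotoxicity was checked on parallel CellTiter-Glo plates.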
Background: The HiBiT peptide binds its large partner to form an active luciferase.
`Cc1cc(F)c(Nc2nc(-c3ccc4c(c3)N([C@H]3C[C@@H](N5CCCCC5)C3)C(=O)C43CCN(C(=O)C4CCN(C(=O)N5CCC(Nc6cccc7c6C(=O)N(C6CCC(=O)NC6=O)C7=O)CC5)CC4)CC3)cc3ncn(C(C)C)c23)cc1C(=O)NC(C)C` (stereo partly drawn) [Example 68, 5-{[6-(1′-{1-[4-({2-[2,6-dioxopiperidin-3-yl]-1,3-dioxo-2,3-dihydro-1H-isoindol-4-yl}amino)piperidine-1-carbonyl]piperidine-4-carbonyl}-2-oxo-1-[(1s,3s)-3-(piperidin-1-yl)cyclobutyl]-1,2-dihydrospiro[indole-3,4′-piperidin]-6-yl)-3-(propan-2-yl)-3H-imidazo[4,5-c]pyridin-4-yl]amino}-4-fluoro-2-methyl-N-(propan-2-yl)benzamide] came in with a maximal degradation (Dmax) of 45 to 65%.

`Cc1cc(F)c(Nc2nc(-c3ccc4c(c3)N([C@H]3C[C@@H](N5CCCCC5)C3)C(=O)C43CCN(C(=O)[C@@H]4CCN(C(=O)N5CCC(Nc6cccc7c6C(=O)N(C6CCC(=O)NC6=O)C7=O)CC5)C4)CC3)cc3ncn(C(C)C)c23)cc1C(=O)NC(C)C` (stereo partly drawn) [Example 69, 5-[(6-{1′-[(3R)-1-[4-({2-[2,6-dioxopiperidin-3-yl]-1,3-dioxo-2,3-dihydro-1H-isoindol-4-yl}amino)piperidine-1-carbonyl]pyrrolidine-3-carbonyl]-2-oxo-1-[(1S,3s)-3-(piperidin-1-yl)cyclobutyl]-1,2-dihydrospiro[indole-3,4′-piperidin]-6-yl}-3-(propan-2-yl)-3H-imidazo[4,5-c]pyridin-4-yl)amino]-4-fluoro-2-methyl-N-(propan-2-yl)benzamide] came in with a Dmax of 45 to 65%.

The molecule `Cc1cc(F)c(Nc2nc(-c3ccc4c(c3)N([C@H]3C[C@@H](N5CCCCC5)C3)C(=O)C43CCN(C(=O)c4cnn(C[C@H]5CC[C@H](Nc6cccc7c6C(=O)N(C6CCC(=O)NC6=O)C7=O)CC5)c4)CC3)cc3ncn(C(C)C)c23)cc1C(=O)NC(C)C` (stereo partly drawn) [Example 70, 4-fluoro-2-methyl-5-({6-[2-oxo-1′-(1-{[(1R,4R)-4-({2-[2,6-dioxopiperidin-3-yl]-1,3-dioxo-2,3-dihydro-1H-isoindol-4-yl}amino)cyclohexyl]methyl}-1H-pyrazole-4-carbonyl)-1-[(1s,3s)-3-(piperidin-1-yl)cyclobutyl]-1,2-dihydrospiro[indole-3,4′-piperidin]-6-yl]-3-(propan-2-yl)-3H-imidazo[4,5-c]pyridin-4-yl}amino)-N-(propan-2-yl)benzamide] had a Dmax of 45 to 65%. The same measure for `Cc1cc(F)c(Nc2nc(-c3ccc4c(c3)N([C@H]3C[C@@H](N5CCCCC5)C3)C(=O)C43CCN(C(=O)c4ccc(C(=O)N5CCN(c6ccc7c(c6)C(=O)N(C6CCC(=O)NC6=O)C7=O)CC5)cc4Cl)CC3)cc3ncn(C(C)C)c23)cc1C(=O)NC(C)C` (stereo partly drawn) [Example 71, 5-[(6-{1′-[2-chloro-4-(4-{2-[2,6-dioxopiperidin-3-yl]-1,3-dioxo-2,3-dihydro-1H-isoindol-5-yl}piperazine-1-carbonyl)benzoyl]-2-oxo-1-[(1s,3s)-3-(piperidin-1-yl)cyclobutyl]-1,2-dihydrospiro[indole-3,4′-piperidin]-6-yl}-3-(propan-2-yl)-3H-imidazo[4,5-c]pyridin-4-yl)amino]-4-fluoro-2-methyl-N-(propan-2-yl)benzamide]: over 65%; for `Cc1cc(F)c(Nc2nc(-c3ccc4c(c3)N([C@H]3C[C@@H](N5CCCCC5)C3)C(=O)C43CCN(C(=O)c4ccc(C(=O)N5CCN(c6ccc7c(c6)C(=O)N(C6CCC(=O)NC6=O)C7=O)CC5C)cc4)CC3)cc3ncn(C(C)C)c23)cc1C(=O)NC(C)C` (stereo partly drawn) [Example 72, 5-[(6-{1′-[4-(4-{2-[2,6-dioxopiperidin-3-yl]-1,3-dioxo-2,3-dihydro-1H-isoindol-5-yl}-2-methylpiperazine-1-carbonyl)benzoyl]-2-oxo-1-[(1s,3s)-3-(piperidin-1-yl)cyclobutyl]-1,2-dihydrospiro[indole-3,4′-piperidin]-6-yl}-3-(propan-2-yl)-3H-imidazo[4,5-c]pyridin-4-yl)amino]-4-fluoro-2-methyl-N-(propan-2-yl)benzamide]: over 65%; for `Cc1cc(F)c(Nc2nc(-c3ccc4c(c3)N([C@H]3C[C@@H](N5CCCCC5)C3)C(=O)C43CCN(C(=O)[C@H]4CCN(C[C@H]5CC[C@H](Nc6cccc7c6C(=O)N(C6CCC(=O)NC6=O)C7=O)CC5)C4)CC3)cc3ncn(C(C)C)c23)cc1C(=O)NC(C)C` (stereo partly drawn) [Example 73, 4-fluoro-2-methyl-5-[(6-{2-oxo-1′-[(3R)-1-{[(1R,4R)-4-({2-[2,6-dioxopiperidin-3-yl]-1,3-dioxo-2,3-dihydro-1H-isoindol-4-yl}amino)cyclohexyl]methyl}pyrrolidine-3-carbonyl]-1-[(1s,3s)-3-(piperidin-1-yl)cyclobutyl]-1,2-dihydrospiro[indole-3,4′-piperidin]-6-yl}-3-(propan-2-yl)-3H-imidazo[4,5-c]pyridin-4-yl)amino]-N-(propan-2-yl)benzamide]: over 65%. `Cc1cc(F)c(Nc2nc(-c3ccc4c(c3)N([C@H]3C[C@@H](N5CCCCC5)C3)C(=O)C43CCN(C(=O)C4(C)CCN(C(=O)C5CCN(c6ccc7c(c6)C(=O)N(C6CCC(=O)NC6=O)C7=O)CC5)CC4)CC3)cc3ncn(C(C)C)c23)cc1C(=O)NC(C)C` (stereo partly drawn) [Example 74, 5-[(6-{1′-[1-(1-{2-[2,6-dioxopiperidin-3-yl]-1,3-dioxoisoindol-5-yl}piperidine-4-carbonyl)-4-methylpiperidine-4-carbonyl]-2-oxo-1-[(1s,3s)-3-(piperidin-1-yl)cyclobutyl]spiro[indole-3,4′-piperidin]-6-yl}-3-isopropylimidazo[4,5-c]pyridin-4-yl)amino]-4-fluoro-N-isopropyl-2-methylbenzamide]: the Dmax lay in the range of 45 to 65%. The same measure for `Cc1cc(F)c(Nc2nc(-c3ccc4c(c3)N([C@H]3C[C@@H](N5CCCCC5)C3)C(=O)C43CCN(C(=O)c4ccc(C(=O)N5CCC(c6cccc7c6C(=O)N([C@H]6CCC(=O)NC6=O)C7=O)CC5)cc4)CC3)cc3ncn(C(C)C)c23)cc1C(=O)NC(C)C` [Example 75, 5-[(6-{1′-[4-(4-{2-[2,6-dioxopiperidin-3-yl]-1,3-dioxo-2,3-dihydro-1H-isoindol-4-yl}piperidine-1-carbonyl)benzoyl]-2-oxo-1-[(1s,3s)-3-(piperidin-1-yl)cyclobutyl]-1,2-dihydrospiro[indole-3,4′-piperidin]-6-yl}-3-(propan-2-yl)-3H-imidazo[4,5-c]pyridin-4-yl)amino]-4-fluoro-2-methyl-N-(propan-2-yl)benzamide]: under 45%; for `Cc1cc(F)c(Nc2nc(-c3ccc4c(c3)N([C@H]3C[C@@H](N5CCCCC5)C3)C(=O)C43CCN(C(=O)c4ccc(C(=O)N5CCC(c6ccc7c(c6)C(=O)N(C6CCC(=O)NC6=O)C7=O)CC5)cc4)CC3)cc3ncn(C(C)C)c23)cc1C(=O)NC(C)C` (stereo partly drawn) [Example 76, 5-[(6-{1′-[4-(4-{2-[2,6-dioxopiperidin-3-yl]-1,3-dioxo-2,3-dihydro-1H-isoindol-5-yl}piperidine-1-carbonyl)benzoyl]-2-oxo-1-[(1s,3s)-3-(piperidin-1-yl)cyclobutyl]-1,2-dihydrospiro[indole-3,4′-piperidin]-6-yl}-3-(propan-2-yl)-3H-imidazo[4,5-c]pyridin-4-yl)amino]-4-fluoro-2-methyl-N-(propan-2-yl)benzamide]: 45 to 65%; for `Cc1cc(F)c(Nc2nc(-c3ccc4c(c3)N([C@H]3C[C@@H](N5CCCCC5)C3)C(=O)C43CCN(C(=O)c4ccc(C(=O)N5CCC(Cc6cccc7c6C(=O)N(C6CCC(=O)NC6=O)C7=O)CC5)cc4)CC3)cc3ncn(C(C)C)c23)cc1C(=O)NC(C)C` (stereo partly drawn) [Example 77, 5-{[6-(1′-{4-[4-({2-[2,6-dioxopiperidin-3-yl]-1,3-dioxo-2,3-dihydro-1H-isoindol-4-yl}methyl)piperidine-1-carbonyl]benzoyl}-2-oxo-1-[(1s,3s)-3-(piperidin-1-yl)cyclobutyl]-1,2-dihydrospiro[indole-3,4′-piperidin]-6-yl)-3-(propan-2-yl)-3H-imidazo[4,5-c]pyridin-4-yl]amino}-4-fluoro-2-methyl-N-(propan-2-yl)benzamide]: 45 to 65%. The same measure for `Cc1cc(F)c(Nc2nc(-c3ccc4c(c3)N([C@H]3C[C@@H](N5CCCCC5)C3)C(=O)C43CCN(C(=O)c4ccc(C(=O)N5CCN(c6ccc7c(c6)C(=O)N(C6CCC(=O)NC6=O)C7=O)CC5)cc4)CC3)cc3ncn(C(C)C)c23)cc1C(=O)NC(C)C` (stereo partly drawn) [Example 78, 5-((6-(1′-(4-(4-(2-(2,6-dioxopiperidin-3-yl)-1,3-dioxoisoindolin-5-yl)piperazine-1-carbonyl)benzoyl)-2-oxo-1-((1s,3s)-3-(piperidin-1-yl)cyclobutyl)spiro[indoline-3,4′-piperidin]-6-yl)-3-isopropyl-3H-imidazo[4,5-c]pyridin-4-yl)amino)-4-fluoro-N-isopropyl-2-methylbenzamide]: 45 to 65%. To `Cc1cc(F)c(Nc2nc(-c3ccc4c(c3)N([C@H]3C[C@@H](N5CCCCC5)C3)C(=O)C43CCN(C(=O)[C@H]4CC[C@@H](C(=O)N5CCN(c6ccc7c(c6)C(=O)N(C6CCC(=O)NC6=O)C7=O)CC5)CC4)CC3)cc3ncn(C(C)C)c23)cc1C(=O)NC(C)C` (stereo partly drawn) [Example 79, 5-((6-(1′-((1s,4S)-4-(4-(2-(2,6-dioxopiperidin-3-yl)-1,3-dioxoisoindolin-5-yl)piperazine-1-carbonyl)cyclohexane-1-carbonyl)-2-oxo-1-((1s,3s)-3-(piperidin-1-yl)cyclobutyl)spiro[indoline-3,4′-piperidin]-6-yl)-3-isopropyl-3H-imidazo[4,5-c]pyridin-4-yl)amino)-4-fluoro-N-isopropyl-2-methylbenzamide] belongs 45 to 65%.

Broadly, the Dmax is the greatest extent of degradation seen. Higher therefore signals a fuller loss of target.

The record behind these values is patent publication US11739101B2, “Bifunctional degraders of hematopoietic progenitor kinase and therapeutic uses thereof” (Nurix Therapeutics, Inc., priority 2020, dated 2023).
